# Earlier results in patent US20250041313A1, “COMBINATION THERAPY FOR TREATMENT OF CANCER” (CITY OF HOPE, priority 2023, published 2025).
# Settings: cited from earlier work
smiles,measurement,setting,value
"Cc1oncc1C(=O)Nc1ccc(C(F)(F)F)cc1 [Leflunomide, leflunomide]",safety profile,"up to 40 mg/day, patients with Wegner's granulomatosis",safety profile like the 20 mg/day dose
same,time to attain steady state concentrations,"without a loading dose, estimated, FDA label",two
